Measured values from patent publication US9802942B2, “Substituted 4-methyl-pyrrolo[1,2-A]pyrimidine-8-carboxamide compounds and uses thereof for modulating glucocerebrosidase activity” (Northwestern University, priority 2015, dated 2017).
Like-named read-outs stand apart in the source and are kept apart here.

Molecular target: T1, glucocerebrosidase (GCase), recombinant wt. enzyme velaglucerase alfa (Homo sapiens, UniProt P04062)
T1 construct: purchased Shire Human Genetic Therapies, Inc. Vpriv
T1 sequence (P04062 40-536): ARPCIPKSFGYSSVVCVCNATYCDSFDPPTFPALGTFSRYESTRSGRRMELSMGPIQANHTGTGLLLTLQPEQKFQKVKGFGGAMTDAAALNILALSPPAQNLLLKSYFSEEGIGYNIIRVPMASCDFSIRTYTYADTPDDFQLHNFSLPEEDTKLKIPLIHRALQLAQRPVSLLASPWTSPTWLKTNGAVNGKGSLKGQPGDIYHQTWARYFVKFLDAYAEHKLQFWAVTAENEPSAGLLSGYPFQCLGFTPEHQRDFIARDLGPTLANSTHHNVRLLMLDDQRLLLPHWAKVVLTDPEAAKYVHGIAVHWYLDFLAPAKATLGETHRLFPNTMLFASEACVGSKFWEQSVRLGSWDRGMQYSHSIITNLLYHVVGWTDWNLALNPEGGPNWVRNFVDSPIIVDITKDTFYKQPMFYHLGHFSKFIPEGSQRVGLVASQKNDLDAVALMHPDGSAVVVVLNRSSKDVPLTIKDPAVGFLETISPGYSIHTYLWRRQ
Experiment: Glucocerebrosidase activity assay with blue substrate (4MU-Glc)
Assay type: biochemical
Experimental: The compounds in DMSO solution 0.5 μL/well were transferred to a black 96-well plate (the final titration was 24 nM to 50 μM, 12 concentrations, 2 times dilution). 33.5 μL enzyme solution (7.5 nM final concentration) was transferred to the wells. After 5 min of incubation at room temperature, the enzyme reaction was initiated by the addition of 33 μL/well blue substrate or 66.5 μL/well red substrate. Final concentrations of the blue substrate (4MU-Glc) and red substrate (Res-Glc) were 1.5 mM and 30 μM, respectively. The red substrate reaction was measured in the Biotek Synergy H1 multi-mode plate reader with Ex=573 nm and Em=610 nm at 37° C. every 20 sec for 30 min. The blue substrate reaction was terminated by the addition of 33 μL/well stop solution (1 M NaOH and 1 M glycine mixture, pH 10) after 30 min of incubation at 37° C. The fluorescence was then measured in the plate reader at Ex=365 nm and Em=440 nm.
The recombinant wt. enzyme velaglucerase alfa (Vpriv®, Shire Human Genetic Therapies, Inc.) was obtained from residual solution after clinical infusions. The GCase activity assay buffer was composed of 50 mM citric acid, 176 mM K2HPO4, and 0.01% Tween-20 at pH 5.9. A solution of 1 M sodium hydroxide and 1 M glycine was used as the stop solution for the 4MU-β-glc substrate assay.
The compounds in DMSO solution 0.5 μL/well was transferred to a black 96-well plate (the final titration was 24 nM to 50 μM, 12 concentrations). 33.5 μL enzyme solution (7.5 nM final concentration) was transferred to the wells. After 5 min of incubation at room temperature, the enzyme reaction was initiated by the addition of 33 μL/well 4MU-Glc substrate or 66.5 μL/well red substrate. Final concentrations of the 4MU-Glc substrate and Res-Glc substrate were 1.5 mM and 30 μM, respectively. The red substrate reaction was measured in the Biotek Synergy H1 multi-mode plate reader with Ex=573 nm and Em=610 nm at 37° C. in every 20 seconds for 30 min. The 4MU-Glc substrate reaction was terminated by the addition of 33 μL/well stop solution (1 M NaOH and 1 M glycine mixture, pH 10) after 30 min of incubation at 37° C. The fluorescence was then measured in the plate reader with Ex=365 nm and Em=440 nm.

[1] = Table 2, values marked activator, read-out: Activity AC50 or IC50

Structure (SMILES)	AC50 (Table 1, titration 24 nM to 50 μM, substrate not given, read-out: Ac50) [µM]	activator (word in Activity cell) (Table 2)	AC50 [1] [µM]
Cc1cc(C)n2ccc(C(=O)Nc3ccc(-c4cn(CCOCCOCCC(=O)NC5CCC5)nn4)cc3)c2n1 [compound 70]	3.55		
Cc1cc(C)n2ccc(C(=O)Nc3ccc(-c4cn(CCOCCOCCC(=O)NCCOCCOCCOCCNC(=O)CCOCCOCCn5cc(-c6ccc(NC(=O)c7ccn8c(C)cc(C)nc78)cc6)nn5)nn4)cc3)c2n1 [compound 71]		activator	1.26
Cc1cc(C)n2ccc(C(=O)NCc3cccnc3Oc3ccccc3)c2n1 [compound 72]		activator	6.13
Cc1cc(C)n2ccc(C(=O)Nc3ccc(I)cc3)c2n1 [compound 73]		activator	0.316
COC(=O)CCCCCCCCC#Cc1ccc(NC(=O)c2ccn3c(C)cc(C)nc23)cc1 [compound 74]		activator	0.71
Cc1cc(C)n2ccc(C(=O)Nc3ccc(C#CCCCCCCC#Cc4ccc(N)cc4)cc3)c2n1 [compound 75]		activator	1.26
Cc1cc(C)n2ccc(C(=O)Nc3ccc(C#CCCCCCCC#Cc4ccc(NC(=O)c5ccn6c(C)cc(C)nc56)cc4)cc3)c2n1 [compound 76]		activator	28.2
COC(=O)CCCCCCCCC#Cc1ccc(NC(=O)c2ccn3c(C)cc(-c4cccnc4)nc23)cc1 [compound 78]		activator	0.71
Cc1cc(-c2cccnc2)nc2c(C(=O)Nc3ccc(C#CCCCCCCCCC(=O)O)cc3)ccn12 [compound 79]		activator	3.54
COC(=O)CCCC#Cc1cccc(NC(=O)c2ccn3c(C)cc(C)nc23)c1 [compound 80]		activator	
COC(=O)CCCCCc1cccc(NC(=O)c2ccn3c(C)cc(C)nc23)c1 [compound 81]		activator	1.78
Cc1cc(C)n2ccc(C(=O)Nc3ccc(C#CCCCCCCCCC(=O)ON4C(=O)CCC4=O)cc3)c2n1 [compound 82]		activator	0.8
Cc1cc(-c2cccnc2)nc2c(C(=O)Nc3ccc(C#CCCCCCCCCC(=O)ON4C(=O)CCC4=O)cc3)ccn12 [compound 83]		activator	0.56
